Laboratory results published in US20080118475A1, “Model System for Testing the Efficacy of Pharmaceutical Preparation on Inflammatory Processes in the Nervous System” (KEYNEUROTEK AG, priority 2004, published 2008).
Entries after “also recorded” stand apart in the source; their conditions may differ.

B1: M-CSF: pro-inflammatory cytokin that activates microglia (protein, UniProt P09603 33-554, looked up)
Macrophage colony-stimulating …: EEVSEYCSHMIGSGHLQSLQRLIDSQMETSCQITFEFVDQEQLKDPVCYLKKAFLLVQDIMEDTMRFRDNTPNAIAIVQLQELSLRLKSCFTKDYEEHDKACVRTFYETPLQLLEKVKNVFNETKNLLDKDWNIFSKNCNNSFAECSSQDVVTKPDCNCLYPKAIPSSDPASVSPHQPLAPSMAPVAGLTWEDSEGTEGSSLLPGEQPLHTVDPGSAKQRPPRSTCQSFEPPETPVVKDSTIGGSPQPRPSVGAFNPGMEDILDSAMGTNWVPEEASGEASEIPVPQGTELSPSRPGGGSMQTEPARPSNFLSASSPLPASAKGQQPADVTGTALPRVGPVRPTGQDWNHTPQKTDHPSALLRDPPEPGSPRISSLRPQGLSNPSTLSAQPQLSRSHSSGSVLPLGELEGRRSTRDRRSPAEPEGGPASEGAARPLPRFNSVPLTDTGHERQSEGSFSPQLQESVFHLLVPSVILVLLAVGGLLFYRWRRRSHQEPQRADSPLEQPEGSPLTQDDRQVELPV

System: organo-typical cultures of the hippocampus
Experiment: Inflammation-provoked degeneration of organo-typical hippocampal slice cultures, propidium iodide fluorescence
Type: cell-based, Sprague-Dawley rats
Details: for protection of the neural tissue against degeneration (propidium iodide staining): reagent incubated over 48 hours together with LPS (200 ηg/ml) and GM-CSF (1 ηg/ml); for degeneration of the tissue / neurons (propidium iodide staining), cytokin in combination with LPS: cytokin plus LPS (200 μm/ml [sic] in the source, 200 ηg/ml), 48 hours, M-CSF 10 ηg/ml, IFNy 30 ηg/ml, GM-CSF 1 ηg/ml
Method: For the preparation of organo-typical cultures of the hippocampus, 7 to 8 day-old Sprague-Dawley rats were used. From the isolated hippocampus of these animals ca. 400 μm thick slices were prepared, each approximately comprising 20 cell layers. […] The slices were able to be cultured in 6-pore culture plates for up to 3 weeks through changing the medium below the membrane.
All the incubations were carried out in a medium that contained a minimum of 50% of essential medium/HEPES, 25% of Hank's balanced salt solution and 25% of heat-inactivated horse serum.
The degeneration of the tissue was rendered visible by means of a propidium iodide-fluorescence of the cells, which, because of the injury sustained, could no longer prevent, […], diffusion into the cell nucleus and staining of the DNA. Consequently, the red fluorescence above a threshold value was evaluated as the signal for the degeneration of cells. The degree of degeneration per slice was expressed as the percentage of the total surface that the red values lay above the threshold.
Here, both reagents were incubated over 48 hours with LPS and GM-CSF. Thus, for working in this assay, both steroidal as well as non-steroidal reagents were used.
Organo-typical cultures were incubated with LPS either alone or in combination with the pro-inflammatory cytokins GM-CSF and M-CSF over 48 hours. The injury to the tissue (cell mortality) was established by means of propidium iodide staining (A) and quantified by means of an automated picture analysis (B).

Molecule | protection of the neural tissue against degeneration (propidium iodide staining) | degeneration of the tissue / neurons (propidium iodide staining), cytokin in combination with LPS | degeneration / injury of the tissue (propidium iodide staining), substance alone (incubated alone over 48 hours)
CC(=O)Oc1ccccc1C(=O)O [acetyl salicylic acid, reference compound] | complete protection of the neural tissue; also recorded: protected | – | –
CC(C)Cc1ccc(C(C)C(=O)O)cc1 (stereo not drawn) [iboprufen, reference compound] | protective activity | – | –
GM-CSF: Granulocyte Macrophage Colony-Stimulating Factor, pro-inflammatory cytokin | – | dramatic degeneration of neurons; also recorded: maximum injury | did not lead to any detectable injury
IFNy: pro-inflammatory cytokin that activates the microglia and can induce MHC expression | – | very strong degeneration of the tissue | –
B1 | – | dramatic degeneration of neurons; also recorded: less precipitous | –
